Results reported in ChEMBL document CHEMBL1137449, “A refined agonist pharmacophore for protease activated receptor 2” (Bioorg Med Chem Lett, 2007).
Activity calls are given as the source filed them. The rule behind the calls is not given here. Square brackets hold non-standard residues; d marks the D form. Peptide text beside a SMILES is read from it. Phe(4-NO2) = N[C@@H](Cc1ccc([N+](=O)[O-])cc1)C(=O)O

Tests used:
[1] = molecular target: Proteinase-activated receptor 2 (Homo sapiens) (UniProt P55085); assay: Agonist activity at PAR2 expressed in 2-furoyl-LIGRLI-NH2 treated human HT29 cells assessed as intracellular calcium response; format: functional, cell-based; conditions: HT-29
[2] = molecular target: T1, Proteinase-activated receptor 2 (Homo sapiens, UniProt P55085); assay: Agonist activity at PAR2 expressed in human HT29 cells assessed as intracellular calcium release; format: functional, cell-based, HT-29
T1 sequence (P55085 whole entry): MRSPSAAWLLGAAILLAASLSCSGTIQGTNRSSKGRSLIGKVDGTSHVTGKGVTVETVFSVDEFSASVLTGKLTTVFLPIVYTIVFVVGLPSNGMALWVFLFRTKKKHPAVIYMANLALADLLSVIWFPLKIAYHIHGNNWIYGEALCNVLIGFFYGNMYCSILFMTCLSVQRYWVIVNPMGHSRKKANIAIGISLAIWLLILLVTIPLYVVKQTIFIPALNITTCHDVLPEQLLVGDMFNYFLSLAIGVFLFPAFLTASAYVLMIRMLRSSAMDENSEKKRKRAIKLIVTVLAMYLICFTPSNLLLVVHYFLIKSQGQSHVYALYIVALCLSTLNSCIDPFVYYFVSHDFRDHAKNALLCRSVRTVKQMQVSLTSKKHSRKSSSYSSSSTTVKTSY

`CC[C@H](C)[C@H](NC(=O)[C@H](Cc1ccc([N+](=O)[O-])cc1)NC(=O)[C@H](CCCNC(=N)N)NC(=O)CNC(=O)[C@@H](NC(=O)[C@H](CC(C)C)NC(=O)[C@@H](N)CO)[C@@H](C)CC)C(N)=O` (H-SLIGR[Phe(4-NO2)]I-NH2) was tested, and the Activity [1] was “inactive” and the EC50 [2] was 400 nM.
